From patent US10071960B1, “Enaminone-grafted trithiocarbonate with anticancer and antimicrobial activity” (KING SAUD UNIVERSITY, priority 2017, dated 2018)
In brackets after ≈: the same amount, converted by molar mass.

Experiments:
[1] = test system: LoVo Colon cancer cells; assay: MTT antiproliferative assay, LoVo; format: cell-based; settings: Homo sapiens, 48 hours
Experimental: (§1) HepG2 (human hepatocarcinoma), LoVo (human colorectal adenocarcinoma) and MDA-MB-231 (human breast cancer) cancer cell lines were selected for the in vitro antiproliferative activity. Cells were seeded in 24-well plates at a density of 50,000 cells/well for 24 hours for adherent. After 24 hours, cells were treated with increasing concentrations of compound 3 or an equal volume of vehicle (DMSO) as a control and were incubated for 48 hours. 100 μL of MTT reagent (5 mg/ml) were added. The plates were incubated for 2 hours and absorbance was determined at 540 nm in an ELISA plate reader (Thermo, USA). Percentages of cell survival were calculated as follows: % cell survival=(absorbance of treated cells/absorbance of cells with vehicle solvent)×100. The 50% inhibitory concentration (IC50) was calculated from the dose-response curve obtained by plotting the percentage of cell survival versus the concentration of compound 3.

[2] = test system: HepG2 Liver cancer cells; assay: MTT antiproliferative assay, HepG2; format: cell-based; settings: Homo sapiens, 48 hours
Experimental: as §1

[3] = test system: MDA-MB-231 Breast Cancer cells; assay: MTT antiproliferative assay, MDA-MB-231; format: cell-based; settings: Homo sapiens, MDA-MB-231 cells, 48 hours
Experimental: as §1

[4] = test system: Hepg2, LoVo, and MDA-MB-231 cell lines; assay: MTT growth inhibition, all three tested human tumor cells; format: cell-based; settings: 48 hours, read-out: IC50 concentrations, range over all three tested human tumor cells
Experimental: as §1

[5] = test system: LoVo Colon cancer cells; assay: LDH release cytotoxicity assay, LoVo; format: cell-based, human; settings: treated with IC50 for 48 hours; FIGS. 7 and 8A-8F
Experimental: Lactate dehydrogenase (LDH) assay was performed to assess the LDH release into the media following compound 3 treatments (IC50) on HepG2, LoVo and MDA-MB-231 cells after 48 hours of incubation. LDH cytotoxicity assay was carried out using an in vitro toxicology assay kit (Sigma Aldrich Inc., USA), according to protocol in the user's manual. The amount of LDH released in culture media was measured at 490 nm using an ELISA plate reader (Thermo, USA).

[6] = test system: Bacillus subtilis; assay: In vitro antimicrobial activity (MIC, MBC); format: cell-based; settings: FIGS. 4 and 5
Experimental: (§2) Biological activity of compound 3 as antimicrobial agents was performed according to (Lam et al. 2016). Lyophilized cultures of Streptococcus nutans ATCC 35668, Bacillus subtilis and Brevibacillus laterosporus Wild strains (Gram positive bacteria), Salmonella typhi Wild strain (Gram negative bacteria), Candid albicans ATCC 60193 (yeast), Cryptococcus neoformans Wild strain (yeast), Aspergillus fumigatus AUMC 8794 (mold), and Penicillium chrysogenum AUMC (mold) were grown aerobically on the appropriate medium and in incubating conditions before minimal inhibitory, minimal Bactericidal, and minimal fungicidal concentration testing (MIC, MBC, and MFC). […]
(§3) The total count of microbes was counted by measurement of bacterial and yeast cells; and spores of mold using hemocytometer and account at 400×.
(§4) The bacterial suspensions were prepared from bacterial cultures which gave an optical density reading of ˜0.9 at 620 nm. […]
(§5) To determine MIC of the compound 3, a Mueller-Hinton broth and Potato dextrose broth were used for bacteria and fungi, respectively. […] After incubation, the microbial growth was detected in the wells by p-iodonitrotetrazolium violet (Sigma, USA) reagent. […] Data are expressed as mean±s.d. of the biological replicates and statistically analyzed using One-Way ANOVA analysis using Tukey test (P<0.05) (SPSS, 13.0).

[7] = test system: Brevibacillus laterosporus Wild strain; assay: In vitro antimicrobial activity (MIC, MBC); format: cell-based; settings: FIGS. 4 and 5
Experimental: as §2, §3, §4, §5

[8] = test system: Candida albicans ATCC 60193; assay: In vitro antimicrobial activity (MIC, MFC); format: cell-based; settings: C. albicans; FIGS. 4 and 5
Experimental: as §2, §3, §4, §5

[9] = test system: Cryptococcus neoformans Wild strain; assay: In vitro antimicrobial activity (MIC, MFC); format: cell-based; settings: Cr. neformans; FIGS. 4 and 5
Experimental: as §2, §3, §4, §5

CCOC(=O)C(=CN(C)C)SC(=S)SC(=CN(C)C)C(=O)OCC (stereo in doubt) [compound 3, (Z)-ethyl 3-(dimethylamino)-2-(((((Z)-1-(dimethylamino)-3-ethoxy-3-oxoprop-1-en-2-yl)thio)carbonothioyl)thio)acrylate]
IC50 [1]: 37.5 µg/mL (≈ 95.5 µM)
IC50 [2]: 38 µg/mL (≈ 96.8 µM)
IC50 [3]: 45 µg/mL (≈ 115 µM)
IC50 [4]: 37.5 to 45 µg/mL (≈ 95.5 to 115 µM)
cytotoxic effects (LDH release, morphology) compared between tumor cell lines [5]: more active
MIC, MBC and MFC: susceptibility compared to other tested microorganisms [6]: resistant
MIC, MBC and MFC: susceptibility compared to other tested microorganisms [7]: resistant
MIC, MBC and MFC: susceptibility compared to other tested microbes [8]: more susceptible
MIC, MBC and MFC: susceptibility compared to other tested microbes [9]: more susceptible
